Assay results: patent US10544130B2, “Metallo-beta-lactamase inhibitors” (priority 2015, dated 2020)

Tests used:
[1] = tested on: Klebsiella pneumoniae expressing VIM-1 (IHMA599644); assay type: cell-based; conditions: with imipenem 1 μg/ml; 95% inhibition of bacterial growth
Method in brief: (§1)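 Clinical strains were grown overnight at 35 °C on blood agar, adjusted to set OD600 in saline and diluted 1:100 into 1.1× CAMHB. Inhibitor was tested with and without imipenem at 1 μg/ml. After 22–24 h at 35 °C, absorbance was read to give synergistic concentration.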

[2] = tested on: Serratia marcescens expressing IMP-1 (CL5741); assay type: cell-based; conditions: with imipenem 1 μg/ml; 95% inhibition of bacterial growth
Method in brief: as §1

[3] = tested on: Escherichia coli expressing NDM-1 (CLB30005, CLB30016); assay type: cell-based; conditions: with imipenem 1 μg/ml; 95% inhibition of bacterial growth
Method in brief: as §1

[4] = tested on: Pseudomonas aeruginosa PAO1 MB9798 (efflux+, IMP-1); conditions: ratio MITC95 PA 9798/MITC95 PA 9799; imipenem at 2 μg/mL
Method in brief: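 Isogenic PAO1 pair (efflux+ MB9798, efflux− MB9799, both IMP-1) tested by microbroth MIC with fixed imipenem and/or ceftazidime, usually at CLSI breakpoint, plus fixed class A/C inhibitor against AmpC. MBL inhibitor titrated; concentration restoring susceptibility recorded and fold difference between strains taken as efflux extent.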

Structure (SMILES) | Klebsiella pneumoniae (VIM-1) MITC95 [1] [µM] | Serratia marcescens (IMP-1) MITC95 [2] [µM] | Escherichia coli (NDM-1) MITC95 [3] [µM] | Efflux ratio [4]
NC[C@H](N)CNS(=O)(=O)c1ccc(-c2ccc(N)nc2)c(-c2nn[nH]n2)c1S(N)(=O)=O [Example 415, (S)-4-(6-aminopyridin-3-yl)-N^1-(2,3-diaminopropyl)-3-(2H-tetrazol-5-yl)benzene-1,2-disulfonamide] | 3.125 | – | – | –
NCCNS(=O)(=O)c1ccc(-c2ccnc(N)c2)c(-c2nn[nH]n2)c1S(N)(=O)=O [Example 400, N^1-(2-aminoethyl)-4-(2-aminopyridin-4-yl)-3-(2H-tetrazol-5-yl)benzene-1,2-disulfonamide] | 1.563 | – | – | –
NCC(CN)NS(=O)(=O)c1ccc(-c2ccc(N)nc2)c(-c2nn[nH]n2)c1S(N)(=O)=O [Example 404, 4-(6-aminopyridin-3-yl)-N^1-(1,3-diaminopropan-2-yl)-3-(2H-tetrazol-5-yl)benzene-1,2-disulfonamide] | 1.172 | – | – | –
NCCNS(=O)(=O)c1ccc(-c2ccccc2NC(=O)CN)c(-c2nn[nH]n2)c1S(N)(=O)=O [Example 452, 2-Amino-N-(4′-(N-(2-aminoethyl)sulfamoyl)-3′-sulfamoyl-2′-(2H-tetrazol-5-yl)-[1,1′-biphenyl]-2-yl)acetamide] | 6.25 | – | – | –
CNc1nc2c(-c3ccc(S(=O)(=O)N[C@@H]4CCNC4)c(S(N)(=O)=O)c3-c3nn[nH]n3)cccc2[nH]1 [Example 280, (R)-4-(2-(methylamino)-1H-benzo[d]imidazol-4-yl)-N1-(pyrrolidin-3-yl)-3-(2H-tetrazol-5-yl)benzene-1,2-disulfonamide] | – | 0.7813 | 0.7813 | 0.50
NCC(CN)NS(=O)(=O)c1ccc(-c2ccnc(N)c2)c(-c2nn[nH]n2)c1S(N)(=O)=O [Example 405, 4-(2-aminopyridin-4-yl)-N^1-(1,3-diaminopropan-2-yl)-3-(2H-tetrazol-5-yl)benzene-1,2-disulfonamide] | 25 | – | – | –
Nc1nc2c(-c3ccc(S(=O)(=O)NC[C@@]4(N)CCNC4)c(S(N)(=O)=O)c3-c3nn[nH]n3)cccc2[nH]1 [Example 251, (R)-4-(2-amino-1H-benzo[d]imidazol-4-yl)-N1-((3-aminopyrrolidin-3-yl)methyl)-3-(2H-tetrazol-5-yl)benzene-1,2-disulfonamide] | – | 0.7813 | 0.7813 | 1.00
NC[C@H](N)CNS(=O)(=O)c1ccc(-c2cnc(N)s2)c(-c2nn[nH]n2)c1S(N)(=O)=O [Example 372, (S)-4-(2-aminothiazol-5-yl)-N1-(2,3-diaminopropyl)-3-(2H-tetrazol-5-yl)benzene-1,2-disulfonamide] | – | 1.563 | 1.563 | 2.00
NCCNS(=O)(=O)c1ccc(-c2cccc(SCC(N)CO)c2)c(-c2nn[nH]n2)c1S(N)(=O)=O (stereo not drawn) [Example 354, 3′-((2-amino-3-hydroxypropyl)thio)-N4-(2-aminoethyl)-2-(2H-tetrazol-5-yl)-[1,1′-biphenyl]-3,4-disulfonamide] | – | 1.563 | 0.3906 | 4.00
Nc1ccc(-c2ccc(S(=O)(=O)NC[C@@H]3CCCN3)c(S(N)(=O)=O)c2-c2nn[nH]n2)cn1 [Example 488, (S)-4-(6-aminopyridin-3-yl)-N1-(pyrrolidin-2-ylmethyl)-3-(2H-tetrazol-5-yl)benzene-1,2-disulfonamide] | 1.563 | – | – | –
CNc1ccc(-c2ccc(S(=O)(=O)N[C@@H]3CCNC3)c(S(N)(=O)=O)c2-c2nn[nH]n2)cn1 [Example 242] | – | 0.7813 | 0.7813 | 1.00
